These compounds were tested on HBV viral production from HepAD38 cells (assay: Activity of test compounds on viral production from HepAD38 cells (viral load by qPCR of HBV core sequence in supernatant)). Settings: Hepatitis B virus, 120 h, 5 days incubation, HBV DNA in supernatant by qPCR, top concentration 10 μM, read-out: Viral Load EC50 Activity range.
Assay type: cell-based
Procedure, shortened: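 EC50 and CC50 come from four-parameter fits of supernatant viral load and CellTiter-Glo viability, respectively. Viral load was measured by core-region TaqMan qPCR against HBV DNA standards and compared with DMSO controls. Tet-free HepAD38 cells (50,000/well, 2% FBS) were exposed to compound, highest 10 μM, for 5 days at 37° C.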

Compared with CN1[C@@H](C(=O)Nc2ccc(F)c(Cl)c2)C[C@@H](c2ccc(F)cc2)NS1(=O)=O [HBV-CSU-112-ISO-II, Cis-N-(3-Chloro-4-fluorophenyl)-5-(4-fluorophenyl)-2-methyl-1,2,6-thiadiazinane-3-carboxamide 1,1-dioxide], CN1[C@H](C(=O)Nc2ccc(F)c(Cl)c2)C[C@H](c2ccccc2)NS1(=O)=O [HBV-CSU-113-ISO-I, Cis-N-(3-chloro-4-fluorophenyl)-2-methyl-5-phenyl-1,2,6-thiadiazinane-3-carboxamide 1,1-dioxide] is lower in EC50: > 5 µM for the first, < 1 µM for the second.

Compared with CN1[C@@H](C(=O)Nc2ccc(F)c(Cl)c2)C[C@@H](c2ccccc2)NS1(=O)=O [HBV-CSU-113-ISO-II, Cis-N-(3-chloro-4-fluorophenyl)-2-methyl-5-phenyl-1,2,6-thiadiazinane-3-carboxamide 1,1-dioxide], CN1[C@H](C(=O)Nc2ccc(F)c(Cl)c2)C[C@H](c2ccc(-c3ccccc3)s2)NS1(=O)=O [HBV-CSU-116-ISO-I, Cis-N-(3-chloro-4-fluorophenyl)-2-methyl-5-(5-phenylthiophen-2-yl)-1,2,6-thiadiazinane-3-carboxamide 1,1-dioxide] is lower in EC50: > 5 µM for the first, < 1 µM for the second. The second is the more potent here.

CN1C(C(=O)Nc2ccc(F)c(Cl)c2)CC(c2ccc(Br)s2)NS1(=O)=O (stereo not shown) [HBV-CSU-114, 5-(5-Bromothiophen-2-yl)-N-(3-chloro-4-fluorophenyl)-2-methyl-1,2,6-thiadiazinane-3-carboxamide 1,1-dioxide] and CN1[C@H](C(=O)Nc2ccc(F)c(Cl)c2)C[C@H](c2ccc(Br)s2)NS1(=O)=O [HBV-CSU-114-ISO-I, (3S,5R)-5-(5-Bromothiophen-2-yl)-N-(3-chloro-4-fluorophenyl)-2-methyl-1,2,6-thiadiazinane-3-carboxamide 1,1-dioxide] cannot be ordered by EC50: < 1 µM for the first, < 1 µM for the second.

First: CN1[C@@H](C(=O)Nc2ccc(F)c(Cl)c2)C[C@@H](c2ccc(Br)s2)NS1(=O)=O [HBV-CSU-114-ISO-II, 5-(5-Bromothiophen-2-yl)-N-(3-chloro-4-fluorophenyl)-2-methyl-1,2,6-thiadiazinane-3-carboxamide 1,1-dioxide]
Second: CN1[C@@H](C(=O)Nc2ccc(F)c(Cl)c2)C[C@H](c2ccc(Br)s2)NS1(=O)=O [HBV-CSU-114-Trans-ISO-I, (3R,5R)-5-(5-bromothiophen-2-yl)-N-(3-chloro-4-fluorophenyl)-2-methyl-1,2,6-thiadiazinane-3-carboxamide 1,1-dioxide]
The EC50 of the first is higher: > 5 µM for the first, 1 to 5 µM for the second. The second is the more potent here.

First: CN1[C@H](C(=O)Nc2ccc(F)c(Cl)c2)C[C@@H](c2ccc(Br)s2)NS1(=O)=O [HBV-CSU-114-Trans-ISO-II, (3S,5S)-5-(5-bromothiophen-2-yl)-N-(3-chloro-4-fluorophenyl)-2-methyl-1,2,6-thiadiazinane-3-carboxamide 1,1-dioxide]
Second: Cc1ccc([C@H]2C[C@@H](C(=O)Nc3ccc(F)c(Cl)c3)N(C)S(=O)(=O)N2)s1 [HBV-CSU-115-ISO-I, Cis-N-(3-chloro-4-fluorophenyl)-2-methyl-5-(5-methylthiophen-2-yl)-1,2,6-thiadiazinane-3-carboxamide 1,1-dioxide]
The EC50 of the first is higher: 1 to 5 µM for the first, < 1 µM for the second. The second is the more potent here.

Compared with Cc1ccc([C@@H]2C[C@H](C(=O)Nc3ccc(F)c(Cl)c3)N(C)S(=O)(=O)N2)s1 [HBV-CSU-115-ISO-II, Cis-N-(3-chloro-4-fluorophenyl)-2-methyl-5-(5-methylthiophen-2-yl)-1,2,6-thiadiazinane-3-carboxamide 1,1-dioxide], Cc1csc([C@H]2C[C@@H](C(=O)Nc3ccc(F)c(Cl)c3)N(C)S(=O)(=O)N2)c1 [HBV-CSU-147-ISO-I, Cis-N-(3-chloro-4-fluorophenyl)-2-methyl-5-(4-methylthiophen-2-yl)-1,2,6-thiadiazinane-3-carboxamide 1,1-dioxide] is lower in EC50: > 5 µM for the first, < 1 µM for the second. The second is the more potent here.

CN1C(C(=O)Nc2ccc(F)c(Cl)c2)CC(c2ccc(Cc3ccccc3)s2)NS1(=O)=O (stereo not drawn) [HBV-CSU-117, Cis-(5-benzylthiophen-2-yl)-N-(3-chloro-4-fluorophenyl)-2-methyl-1,2,6-thiadiazinane-3-carboxamide 1,1-dioxide] and CN1[C@H](C(=O)Nc2ccc(F)c(Cl)c2)C[C@H](c2ccc(Cc3ccccc3)s2)NS1(=O)=O [HBV-CSU-117-ISO-I, Cis-(5-benzylthiophen-2-yl)-N-(3-chloro-4-fluorophenyl)-2-methyl-1,2,6-thiadiazinane-3-carboxamide 1,1-dioxide] cannot be ordered by EC50: < 1 µM for the first, < 1 µM for the second.

First: CN1[C@@H](C(=O)Nc2ccc(F)c(Cl)c2)C[C@@H](c2ccc(Cc3ccccc3)s2)NS1(=O)=O [HBV-CSU-117-ISO-II, Cis-(5-benzylthiophen-2-yl)-N-(3-chloro-4-fluorophenyl)-2-methyl-1,2,6-thiadiazinane-3-carboxamide 1,1-dioxide]
Second: CN1[C@H](C(=O)Nc2ccc(F)c(Cl)c2)C[C@H](c2cc(Cc3ccccc3)cs2)NS1(=O)=O [HBV-CSU-149-ISO-I, Cis-(4-benzylthiophen-2-yl)-N-(3-chloro-4-fluorophenyl)-2-methyl-1,2,6-thiadiazinane-3-carboxamide 1,1-dioxide]
The EC50 of the first is higher: 1 to 5 µM for the first, < 1 µM for the second. The second is the more potent here.

First: CN1[C@H](C(=O)Nc2ccc(F)c(Cl)c2)C[C@H](c2ncc(Br)s2)NS1(=O)=O [HBV-CSU-122-ISO-I, (3S,5R)-5-(5-bromothiazol-2-yl)-N-(3-chloro-4-fluorophenyl)-2-methyl-1,2,6-thiadiazinane-3-carboxamide 1,1-dioxide]
Second: CN1[C@@H](C(=O)Nc2ccc(F)c(Cl)c2)C[C@@H](c2ncc(Br)s2)NS1(=O)=O [HBV-CSU-122-ISO-II, Cis-5-(5-bromothiazol-2-yl)-N-(3-chloro-4-fluorophenyl)-2-methyl-1,2,6-thiadiazinane-3-carboxamide 1,1-dioxide]
The EC50 of the first is lower: < 1 µM for the first, 1 to 5 µM for the second.

CN1[C@@H](C(=O)Nc2ccc(F)c(Cl)c2)C[C@H](c2ncc(Br)s2)NS1(=O)=O [HBV-CSU-122-Trans-ISO-I, (3R,5R)-5-(5-bromothiazol-2-yl)-N-(3-chloro-4-fluorophenyl)-2-methyl-1,2,6-thiadiazinane-3-carboxamide 1,1-dioxide] and CN1[C@H](C(=O)Nc2ccc(F)c(Cl)c2)C[C@@H](c2ncc(Br)s2)NS1(=O)=O [HBV-CSU-122-Trans-ISO-II, (3S,5S)-5-(5-bromothiazol-2-yl)-N-(3-chloro-4-fluorophenyl)-2-methyl-1,2,6-thiadiazinane-3-carboxamide 1,1-dioxide] fall in the same range of EC50: 1 to 5 µM for the first, 1 to 5 µM for the second.

First: CCOCCN1[C@@H](C(=O)Nc2ccc(F)c(Cl)c2)C[C@@H](c2nccs2)NS1(=O)=O [HBV-CSU-142-ISO-I, Cis-N-(3-Chloro-4-fluorophenyl)-2-(2-ethoxyethyl)-5-(thiazol-2-yl)-1,2,6-thiadiazinane-3-carboxamide 1,1-dioxide]
Second: CC(C)OCCN1C(C(=O)Nc2ccc(F)c(Cl)c2)CC(c2nccs2)NS1(=O)=O (stereo not drawn) [HBV-CSU-143, Cis-N-(3-Chloro-4-fluorophenyl)-2-(2-isopropoxyethyl)-5-(thiazol-2-yl)-1,2,6-thiadiazinane-3-carboxamide 1,1-dioxide]
The EC50 of the first is higher: 1 to 5 µM for the first, < 1 µM for the second. The second is the more potent here.

CN1C(C(=O)Nc2ccc(F)c(Cl)c2)CC(c2cc(Br)cs2)NS1(=O)=O (stereo not shown) [HBV-CSU-146, 5-(4-Bromothiophen-2-yl)-N-(3-chloro-4-fluorophenyl)-2-methyl-1,2,6-thiadiazinane-3-carboxamide 1,1-dioxide] and CN1[C@H](C(=O)Nc2ccc(F)c(Cl)c2)C[C@H](c2cc(Br)cs2)NS1(=O)=O [HBV-CSU-146-ISO-I, 5-(4-Bromothiophen-2-yl)-N-(3-chloro-4-fluorophenyl)-2-methyl-1,2,6-thiadiazinane-3-carboxamide 1,1-dioxide] cannot be ordered by EC50: < 1 µM for the first, < 1 µM for the second.

CN1[C@@H](C(=O)Nc2ccc(F)c(Cl)c2)C[C@@H](c2cc(Br)cs2)NS1(=O)=O [HBV-CSU-146-ISO-II, 5-(4-Bromothiophen-2-yl)-N-(3-chloro-4-fluorophenyl)-2-methyl-1,2,6-thiadiazinane-3-carboxamide 1,1-dioxide] and Cc1csc([C@@H]2C[C@H](C(=O)Nc3ccc(F)c(Cl)c3)N(C)S(=O)(=O)N2)c1 [HBV-CSU-147-ISO-II, Cis-N-(3-chloro-4-fluorophenyl)-2-methyl-5-(4-methylthiophen-2-yl)-1,2,6-thiadiazinane-3-carboxamide 1,1-dioxide] cannot be ordered by EC50: > 5 µM for the first, > 5 µM for the second.

Compared with CN1[C@H](C(=O)Nc2ccc(F)c(Cl)c2)C[C@H](c2cc(-c3ccccc3)cs2)NS1(=O)=O [HBV-CSU-148-ISO-I, Cis-N-(3-chloro-4-fluorophenyl)-2-methyl-5-(4-phenylthiophen-2-yl)-1,2,6-thiadiazinane-3-carboxamide 1,1-dioxide], CN1[C@@H](C(=O)Nc2ccc(F)c(Cl)c2)C[C@@H](c2cc(-c3ccccc3)cs2)NS1(=O)=O [HBV-CSU-148-ISO-II, Cis-N-(3-chloro-4-fluorophenyl)-2-methyl-5-(4-phenylthiophen-2-yl)-1,2,6-thiadiazinane-3-carboxamide 1,1-dioxide] is higher in EC50: < 1 µM for the first, 1 to 5 µM for the second.

First: CN1[C@@H](C(=O)Nc2ccc(F)c(Cl)c2)C[C@@H](c2cc(Cc3ccccc3)cs2)NS1(=O)=O [HBV-CSU-149-ISO-II, Cis-(4-benzylthiophen-2-yl)-N-(3-chloro-4-fluorophenyl)-2-methyl-1,2,6-thiadiazinane-3-carboxamide 1,1-dioxide]
Second: CN1[C@H](C(=O)Nc2ccc(F)c(Cl)c2)C[C@H](c2ccc(-c3ccc(C#N)c(F)c3)s2)NS1(=O)=O [HBV-CSU-156-ISO-I, Cis-N-(3-chloro-4-fluorophenyl)-5-(5-(4-cyano-3-fluorophenyl)thiophen-2-yl)-2-methyl-1,2,6-thiadiazinane-3-carboxamide 1,1-dioxide]
The EC50 of the first is higher: 1 to 5 µM for the first, < 1 µM for the second.

For CN1[C@@H](C(=O)Nc2ccc(F)c(Cl)c2)C[C@@H](c2ccc(-c3ccc(C#N)c(F)c3)s2)NS1(=O)=O [HBV-CSU-156-ISO-II, Cis-N-(3-chloro-4-fluorophenyl)-5-(5-(4-cyano-3-fluorophenyl)thiophen-2-yl)-2-methyl-1,2,6-thiadiazinane-3-carboxamide 1,1-dioxide], the EC50 was > 5 µM.

— patent US11078170B2 (Assembly Biosciences, Inc., priority 2017, dated 2021)
